Reference: patent EP0403249A1, “Leukotriene antagonists” (SMITHKLINE BEECHAM CORPORATION, priority 1989, dated 1990)

test system: LTD₄; experiment: Inhibition of leukotriene (LTD₄) induced contraction of guinea pig tracheal tissues in vitro; details: LTD₄ concentration-response on guinea pig tracheal spiral strips, 30 minutes pretreatment with test compound, EC₃₀ shift; current average where tested more than once
Protocol: The leukotriene antagonist activity of the compounds of this invention is measured by the ability of the compounds to inhibit the leukotriene induced contraction' of guinea pig tracheal tissues in vitro. The following methodology was employed: In vitro: Guinea pig (adult male albino Hartley strain) tracheal spiral strips of approximate dimensions 2 to 3 mm cross-sectional width and 3.5 cm length were bathed in modified Krebs buffer in jacketed 10 ml tissue bath and continuously aerated with 95% 0₂/5% CO₂. The tissues were connected via silk suture to force displacement transducers for recording isometric tension. The tissues were equilibrated for 1 hr., pretreated for 15 minutes with meclofenamic acid (1uM) to remove intrinsic prostaglandin responses, and then pretreated for an additional 30 minutes with either the test compound or vehicle control. A cumulative concentration-response curve for LTD₄ on triplicate tissues was generated by successive increases in the bath concentration of the LTD₄. In order to minimize intertissue variability, the contractions elicited by LTD₄ were standardized as a percentage of the maximum response obtained to a reference agonist, carbachol (10uM).
Calculations: The averages of the triplicate LTD₄ concentration-response curves both in the presence and absence of the test compound were plotted on log graph paper. The concentration of LTD₄ needed to elicit 30% of the contraction elicited by carbachol was measured and defined as the EC₃₀. The -log KB value for the test compound was determined by the following equations: [formula] 2. KB= concentration of test compound/(X-1)
The antagonist activity of representative compounds of this invention is listed in Table I. The -log KB values were calculated from the above protocol. Where compounds were tested more than once, the -log KB values given here represent the current average data.

Point of comparison: `COC(C(=O)O)C(Sc1ccc(C(=O)O)cc1)c1ccccc1CCCCCCCCc1ccccc1` (stereo not shown) [9), 2-Methoxy-3-(4-carboxyphenylthio)-3-[2-(8-phenyloctyl)phenyl]propionic acid], “In Vitro-Log KB” value 7.6. Against it:
- O=C(O)c1ccccc1SC(c1ccccc1CCCCCCCCc1ccccc1)C(O)C(=O)O (stereo not shown) [1), 2-Hydroxy-3-(2-carboxyphenylthio)-3-[2-(8-phenyloctyl)phenyl]propionic acid] — lower, 5.5
- O=C(O)c1ccccc1CS[C@H](c1ccccc1CCCCCCCCc1ccccc1)[C@@H](O)C(=O)O [2), 2(S)-Hydroxy-3(R)-(2-carboxyphenylmethylthio)-3-[2-(8-phenyloctyl)phenyl]propionic acid] — lower, 6.2
- O=C(O)c1cccc(CS[C@H](c2ccccc2CCCCCCCCc2ccccc2)[C@@H](O)C(=O)O)c1 [3), 2(S)-Hydroxy-3(R)-(3-carboxyphenylmethylthio)-3-[2-(8-phenyloctyl)phenyl]propionic acid] — lower, 6.6
- O=C(O)c1cccc(SC(c2ccccc2CCCCCCCCc2ccccc2)C(O)C(=O)O)c1 (stereo not shown) [4), 2-Hydroxy-3-(3-carboxyphenylthio)-3-[2-(8-phenyloctyl)phenyl]propionic acid] — lower, 7.0
- O=C(O)c1ccc(SC(c2ccccc2CCCCCCCCc2ccccc2)C(O)C(=O)O)cc1 (stereo not shown) [5), 2-Hydroxy-3-(4-carboxyphenylthio)-3-[2-(8-phenyloctyl)phenyl]propionic acid] — the same, 7.6
- COc1cc(C(=O)O)ccc1CSC(c1ccccc1CCCCCCCCc1ccccc1)C(O)C(=O)O (stereo not shown) [6), 2-Hydroxy-3-(4-carboxy-2-methoxyphenylmethylthio)-3-[2-(8-phenyloctyl)phenyl]propionic acid] — higher, 7.9
- O=C(O)c1ccc(CSC(c2ccccc2CCCCCCCCc2ccccc2)C(O)C(=O)O)cc1 (stereo not shown) [7), 2-Hydroxy-3-(4-carboxyphenylmethylthio)-3-[2-(8-phenyloctyl)phenyl]propionic acid] — lower, 7.1
- O=C(O)c1ccc(CSC(c2ccccc2CCCCCCCCc2ccccc2)C(O)C(=O)O)c(F)c1 (stereo not shown) [8), 2-Hydroxy-3-(2-fluoro-4-carboxyphenylmethylthio)-3-[2-(8-phenyloctyl)phenyl]propionic acid] — higher, 7.8
- O=C(O)C(O)C(Sc1ccc(O)cc1)c1ccccc1CCCCCCCCc1ccccc1 (stereo not shown) [10), 2-Hydroxy-3-(4-hydroxyphenylthio)-3-[2-(8-phenyloctyl)phenyl]propionic acid] — lower, 5.9
- COc1cc(C(=O)O)ccc1CSC(c1ccccc1CCCCCCCCc1ccccc1)C(OC)C(=O)O (stereo not shown) [11), 2-Methoxy-3-(4-carboxy-2-methoxyphenylmethylthio)-3-[2-(8-phenyloctyl)phenyl]propionic acid] — lower, 7.4
- COc1cc(C(=O)O)ccc1CSC(CC(=O)O)c1ccccc1CCCCCCCCc1ccccc1 (stereo not shown) [12), 3-(4-Carboxy-2-methoxyphenylmethylthio)-3-[2-(8-phenyloctyl)phenyl]propionic acid] — within 0.2 log units, 7.5
- COc1ccc(C(=O)O)cc1CSC(c1ccccc1CCCCCCCCc1ccccc1)C(O)C(=O)O (stereo not shown) [13), 2-Hydroxy-3-[(5-carboxy-2-methoxyphenylmethyl)thio]-3-[2-(8-phenyloctyl)phenyl]propionic acid] — lower, 6.5
